Target: T1, recombinant human 11 β-HSD1 (Homo sapiens, UniProt P28845)
T1 construct: made in house; host or cells: E. coli
Test: 11 β-HSD1 SPA Assay (Scintillation Proximity Assay)
Format: biochemical
Procedure: (§1) Inhibition of 11 βHSD1 by test compounds was assessed in vitro by a Scintillation Proximity Assay (SPA). The assay was carried out in a 384-well assay plate in a total well volume of 26 μl and contained a mixture of tritiated cortisone substrate (40 nM), NADPH cofactor (1 mM), inhibitor in serial dilutions ([…] to 10 μM), and purified E. coli-expressed recombinant human 11 βHSD1 (30-100 nM) in assay buffer (50 mM HEPES, 100 mM KCl, 5 mM NaCl, and 2 mM MgCl2, pH7.4). Following mixing, the plate was incubated for 2 hours at room temperature. Reactions were stopped by addition of 30 μl of protein A YSi SPA beads (10 mg/ml) that had been pre-incubated with glycyrrhetinic acid (1 mM) and a monoclonal cortisol antibody (3 μg/ml). The plate was then incubated overnight at room temperature prior to reading on a Microbeta counter. Percent inhibition of each compound was calculated based on the background and the maximal signals. Wells that contained substrate without compound or enzyme were used as the background signal, while the wells that contained substrate and enzyme without any compound were used as the maximal signal. The calculation of the IC50 values for the inhibitors was performed by Activity Base.
as §1, with “β-HSD1” for “βHSD1”

T1 sequence (P28845 whole entry): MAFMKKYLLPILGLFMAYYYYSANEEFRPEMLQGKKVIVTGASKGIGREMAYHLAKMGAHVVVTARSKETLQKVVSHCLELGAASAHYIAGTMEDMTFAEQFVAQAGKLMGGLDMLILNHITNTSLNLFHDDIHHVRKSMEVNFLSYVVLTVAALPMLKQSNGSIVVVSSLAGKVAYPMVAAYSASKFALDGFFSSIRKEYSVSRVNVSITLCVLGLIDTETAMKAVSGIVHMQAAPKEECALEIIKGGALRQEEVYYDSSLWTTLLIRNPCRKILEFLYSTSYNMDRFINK

| SMILES | IC50 [nM] |
| --- | --- |
| CS(=O)(=O)Nc1ccc(N2[C@@H]3CC[C@H]2C[C@@H](NC(=O)C2(c4ccc(Cl)cc4)CC2)C3)nc1 [Example 60, 1-(4-chlorophenyl)-N-(8-{5-[(methylsulfonyl)amino]pyridin-2-yl}-8-azabicyclo[3.2.1]oct-3-endo-yl)cyclopropanecarboxamide] | < 200 |
| Nc1ccc(N2[C@@H]3CC[C@H]2C[C@@H](NC(=O)C2(c4ccc(Cl)cc4)CC2)C3)nc1 [Example 61, N-[8-(5-aminopyridin-2-yl)-8-azabicyclo[3.2.1]oct-3-endo-yl]-1-(4-chlorophenyl)cyclopropanecarboxamide] | < 200 |
| O=C(NC1CC1)c1ccc(N2[C@@H]3CC[C@H]2C[C@@H](NC(=O)C2(c4ccc(Cl)cc4)CC2)C3)cc1 [Example 62, 4-[3-endo-({[1-(4-chlorophenyl)cyclopropyl]carbonyl}amino)-8-azabicyclo[3.2.1]oct-8-yl]-N-cyclopropylbenzamide] | < 200 |
| O=C(NC1CC1)c1ccc(N2[C@@H]3CC[C@H]2C[C@@H](NC(=O)C2(c4ccc(Cl)cc4)CC2)C3)cc1Cl [Example 63, 2-chloro-4-[3-endo-({[1-(4-chlorophenyl)cyclopropyl]carbonyl}amino)-8-azabicyclo[3.2.1]oct-8-yl]-N-cyclopropylbenzamide] | < 200 |
| O=C(NC1CC1)c1ccc(N2[C@@H]3CC[C@H]2C[C@@H](NC(=O)C2(Oc4ccc(Cl)cc4)CC2)C3)nc1 [Example 64, 6-{3-endo-[({1-[(4-chlorophenyl)oxy]cyclopropyl}carbonyl)amino]-8-azabicyclo[3.2.1]oct-8-yl}-N-cyclopropylpyridine-3-carboxamide] | < 200 |
| CC(C)(Oc1ccc(Cl)cc1Cl)C(=O)N[C@H]1C[C@H]2CC[C@@H](C1)N2c1ccc(C(=O)NCC(F)(F)F)cn1 [Example 65, 6-[3-endo-({2-[(2,4-dichlorophenyl)oxy]-2-methylpropanoyl}amino)-8-azabicyclo[3.2.1]oct-8-yl]-N-(2,2,2-trifluoroethyl)pyridine-3-carboxamide] | < 200 |
| CC(C)(Oc1ccc(Cl)cc1)C(=O)N[C@H]1C[C@H]2CC[C@@H](C1)N2c1cnccn1 [Example 66, 2-[(4-chlorophenyl)oxy]-2-methyl-N-(8-pyrazin-2-yl-8-azabicyclo[3.2.1]oct-3-endo-yl)propanamide] | < 200 |
| COCCNC(=O)c1ccc(N2[C@@H]3CC[C@H]2C[C@@H](NC(=O)C(C)Oc2ccc(Cl)cc2)C3)nc1 (stereo partly drawn) [Example 67, 6-[3-endo-({2-[(4-chlorophenyl)oxy]propanoyl}amino)-8-azabicyclo[3.2.1]oct-8-yl]-N-[2-(methyloxy)ethyl]pyridine-3-carboxamide] | < 10000 |
| COCCNC(=O)c1ccc(N2[C@@H]3CC[C@H]2C[C@@H](NC(=O)C(C)Oc2ccc(Cl)cc2Cl)C3)nc1 (stereo partly drawn) [Example 68, 6-[3-endo-({2-[(2,4-dichlorophenyl)oxy]propanoyl}amino)-8-azabicyclo[3.2.1]oct-8-yl]-N-[2-(methyloxy)ethyl]pyridine-3-carboxamide] | < 2000 |
| CC(C)(Oc1cc(F)ccc1Cl)C(=O)N[C@H]1C[C@H]2CC[C@@H](C1)N2c1ccc(C(=O)NC2CC2)cn1 [Example 69, 6-[3-endo-({2-[(2-chloro-5-fluorophenyl)oxy]-2-methylpropanoyl}amino)-8-azabicyclo[3.2.1]oct-8-yl]-N-cyclopropylpyridine-3-carboxamide] | < 200 |
| CC(C)NC(=O)c1ccc(N2[C@@H]3CC[C@H]2C[C@@H](NC(=O)C(C)(C)Oc2ccc(F)cc2Cl)C3)nc1 [Example 70, 6-[3-endo-({2-[(2-chloro-4-fluorophenyl)oxy]-2-methylpropanoyl}amino)-8-azabicyclo[3.2.1]oct-8-yl]-N-(1-methylethyl)pyridine-3-carboxamide] | < 200 |
| CC(C)(Oc1cc(Cl)ccc1Cl)C(=O)N[C@H]1C[C@H]2CC[C@@H](C1)N2c1ccc(C(=O)NC2CC2)cn1 [Example 71, N-cyclopropyl-6-[3-endo-({2-[(2,5-dichlorophenyl)oxy]-2-methylpropanoyl}amino)-8-azabicyclo[3.2.1]oct-8-yl]pyridine-3-carboxamide] | < 200 |
| CC(C)(Oc1cc(Cl)ccc1Cl)C(=O)N[C@H]1C[C@H]2CC[C@@H](C1)N2c1ccc(C(=O)NCC(F)(F)F)cn1 [Example 72, 6-[3-endo-({2-[(2,5-dichlorophenyl)oxy]-2-methylpropanoyl}amino)-8-azabicyclo[3.2.1]oct-8-yl]-N-(2,2,2-trifluoroethyl)pyridine-3-carboxamide] | < 200 |
| CC(C)(Oc1cc(F)ccc1Cl)C(=O)N[C@H]1C[C@H]2CC[C@@H](C1)N2c1ccc(C(=O)NCC(F)(F)F)cn1 [Example 73, 6-[3-endo-({2-[(2-chloro-5-fluorophenyl)oxy]-2-methylpropanoyl}amino)-8-azabicyclo[3.2.1]oct-8-yl]-N-(2,2,2-trifluoroethyl)pyridine-3-carboxamide] | < 200 |
| CC(C)(Oc1ccc(F)cc1Cl)C(=O)N[C@H]1C[C@H]2CC[C@@H](C1)N2c1ccc(C(N)=O)cn1 [Example 74, 6-[3-endo-({2-[(2-chloro-4-fluorophenyl)oxy]-2-methylpropanoyl}amino)-8-azabicyclo[3.2.1]oct-8-yl]pyridine-3-carboxamide] | < 200 |
| CC(C)(Oc1cc(F)c(F)cc1Cl)C(=O)N[C@H]1C[C@H]2CC[C@@H](C1)N2c1ccc(C(=O)NCC(F)(F)F)cn1 [Example 75, 6-[3-endo-({2-[(2-chloro-4,5-difluorophenyl)oxy]-2-methylpropanoyl}amino)-8-azabicyclo[3.2.1]oct-8-yl]-N-(2,2,2-trifluoroethyl)pyridine-3-carboxamide] | < 200 |
| CC(C)(Oc1cc(F)c(Cl)cc1Cl)C(=O)N[C@H]1C[C@H]2CC[C@@H](C1)N2c1ccc(C(N)=O)cn1 [Example 76, 6-[3-endo-({2-[(2,4-dichloro-5-fluorophenyl)oxy]-2-methylpropanoyl}amino)-8-azabicyclo[3.2.1]oct-8-yl]pyridine-3-carboxamide] | < 200 |
| CC(C)(Oc1ccc(Cl)c(F)c1)C(=O)N[C@H]1C[C@H]2CC[C@@H](C1)N2c1ccc(C(=O)NCC(F)(F)F)cn1 [Example 77, 6-[3-endo-({2-[(4-chloro-3-fluorophenyl)oxy]-2-methylpropanoyl}amino)-8-azabicyclo[3.2.1]oct-8-yl]-N-(2,2,2-trifluoroethyl)pyridine-3-carboxamide] | < 200 |
| CC(C)(Oc1ccc(F)c(F)c1)C(=O)N[C@H]1C[C@H]2CC[C@@H](C1)N2c1ccc(C(=O)NCC(F)(F)F)cn1 [Example 78, 6-[3-endo-({2-[(3,4-difluorophenyl)oxy]-2-methylpropanoyl}amino)-8-azabicyclo[3.2.1]oct-8-yl]-N-(2,2,2-trifluoroethyl)pyridine-3-carboxamide] | < 200 |
| CC(C)NC(=O)c1ccc(N2[C@@H]3CC[C@H]2C[C@@H](NC(=O)C(C)(C)Oc2ccc(Cl)c(Cl)c2)C3)nc1 [Example 79, 6-[3-endo-({2-[(3,4-dichlorophenyl)oxy]-2-methylpropanoyl}amino)-8-azabicycio[3.2.1]oct-8-yl]-N-(1-methylethyl)pyridine-3-carboxamide] | < 200 |
| COCCNC(=O)c1ccc(N2[C@@H]3CC[C@H]2C[C@@H](NC(=O)C(C)(C)Oc2ccc(Cl)cc2Cl)C3)nc1 [Example 80, 6-[3-endo-({2-[(2,4-dichlorophenyl)oxy]-2-methylpropanoyl}amino)-8-azabicyclo[3.2.1]oct-8-yl]-N-[2-(methyloxy)ethyl]pyridine-3-carboxamide] | < 200 |
| CCC(Oc1ccc(Cl)cc1)C(=O)N[C@H]1C[C@H]2CC[C@@H](C1)N2c1ccc(C(=O)NCCOC)cn1 (stereo partly drawn) [Example 81, 6-[3-endo-({2-[(4-chlorophenyl)oxy]butanoyl}amino)-8-azabicyclo[3.2.1]oct-8-yl]-N-[2-(methyloxy)ethyl]pyridine-3-carboxamide] | < 2000 |
| CC(Oc1ccc(Cl)cc1Cl)C(=O)N[C@H]1C[C@H]2CC[C@@H](C1)N2c1ccc(C(=O)NC2CC2)cn1 (stereo partly drawn) [Example 82, N-cyclopropyl-6-[3-endo-({2-[(2,4-dichlorophenyl)oxy]propanoyl}amino)-8-azabicyclo[3.2.1]oct-8-yl]pyridine-3-carboxamide] | < 200 |
| CC(C)(Oc1ccc(Cl)c(Cl)c1)C(=O)N[C@H]1C[C@H]2CC[C@@H](C1)N2c1ccc(C(=O)NCC(F)(F)F)cn1 [Example 83, 6-[3-endo-({2-[(3,4-dichlorophenyl)oxy]-2-methylpropanoyl}amino)-8-azabicyclo[3.2.1]oct-8-yl]-N-(2,2,2-trifluoroethyl)pyridine-3-carboxamide] | < 200 |
